# From patent US12514251B2, “Fused heterocyclic compounds and their use as pest control agents” (priority 2020, dated 2026)
# What was measured:
# Type in all cases: in vivo
# Spodoptera litura = assay: Spodoptera litura, diet incorporation method; conditions: third instar larvae, 96 h after release, dead + moribund vs untreated control, read-out: percent mortality
# Procedure: (§1) The diet incorporation method was used, in which the required quantity of the test compound was weighed and dissolved in a tube containing solvent solution. The tube was put on a vortex at 2000 rpm for 90 min for proper mixing. Semi-synthetic diet was incorporated into this solution when the temperature was approximately 50° C. in the bioassay containers. Compound and diet were stirred thoroughly for proper mixing and allowed to cool for 30 min. The solidified diet was cut into equal pieces, and then each piece was transferred into one cell of a bio-assay tray. A single starved third instar larva was released into each of the cells of the bioassay trays and the tray was covered with the lid. The bio-assay trays were then kept under laboratory conditions at a temperature of 25° C. and a relative humidity of 70%. Observations on dead, moribund and alive larvae were recorded 96 h after the release of larvae. Percent mortality was calculated by combining dead and moribund larvae and comparing the result to the one of the untreated control.
# Helicoverpa armigera = assay: Helicoverpa armigera, diet incorporation method; conditions: third instar larvae, 96 h after release, dead + moribund vs untreated control, read-out: percent mortality
# Procedure: as §1, with “covered with a lid. The” for “covered with the lid. The”, “release of the larvae. Percent” for “release of larvae. Percent”
# Plutella xylostella = assay: Plutella xylostella, leaf dip method; conditions: foliar, cabbage leaf dip, second instar larvae, 72 h after release, dead + moribund vs untreated control, read-out: percent mortality
# Procedure, shortened: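 Cabbage leaves were dipped for 10 s in compound diluted with 0.01% Triton-X, shade dried and offered singly to second instar larvae. Trays were held at 25° C. and 70% relative humidity. Dead plus moribund larvae were scored at 72 h, and percent mortality was expressed relative to untreated control.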
structure (smiles),measurement,setting,value
"CCS(=O)(=O)c1ccc(-n2cnc(C(F)(F)F)n2)nc1-c1ccn2nc(C(F)(F)F)cc2n1 [Compound 4, 5-(3-(ethylsulfonyl)-6-(3-(trifluoromethyl)-1H-1,2,4-triazol-1-yl)pyridin-2-yl)-2-(trifluoromethyl)pyrazolo[1,5-a]pyrimidine]",mortality at 300 ppm,Spodoptera litura,≥ 70%
same,mortality at 300 ppm,Helicoverpa armigera,≥ 70%
same,mortality at 300 ppm,Plutella xylostella,≥ 70%
"CCS(=O)(=O)c1ccc(-n2ncn(-c3ccc(Cl)cc3)c2=O)nc1-c1ccn2nc(C(F)(F)F)cc2n1 [Compound 7, 4-(4-chlorophenyl)-2-(5-(ethylsulfonyl)-6-(2-(trifluoromethyl)pyrazolo[1,5-a]pyrimidin-5-yl)pyridin-2-yl)-2,4-dihydro-3H-1,2,4-triazol-3-one]",mortality at 300 ppm,Helicoverpa armigera,≥ 70%
same,mortality at 300 ppm,Plutella xylostella,≥ 70%
"CCS(=O)(=O)c1ccc(-n2ncn(-c3cc(Cl)cc(Cl)c3)c2=O)nc1-c1ccn2nc(C(F)(F)F)cc2n1 [Compound 8, 4-(3,5-dichlorophenyl)-2-(5-(ethylsulfonyl)-6-(2-(trifluoromethyl)pyrazolo[1,5-a]pyrimidin-5-yl)pyridin-2-yl)-2,4-dihydro-3H-1,2,4-triazol-3-one]",mortality at 300 ppm,Helicoverpa armigera,≥ 70%
same,mortality at 300 ppm,Plutella xylostella,≥ 70%
"CCS(=O)(=O)c1ccc(-c2ccc(OC(F)(F)F)cc2)nc1-c1ccn2nc(C(F)(F)F)cc2n1 [Compound 17, 5-(3-(ethylsulfonyl)-6-(4-(trifluoromethoxy)phenyl)pyridin-2-yl)-2-(trifluoromethyl)pyrazolo[1,5-a]pyrimidine]",mortality at 300 ppm,Spodoptera litura,≥ 70%
same,mortality at 300 ppm,Plutella xylostella,≥ 70%
"CCS(=O)(=O)c1cc(Br)cnc1-c1ccn2nc(C(F)(F)F)cc2n1 [Compound 29, 5-(5-bromo-3-(ethylsulfonyl)pyridin-2-yl)-2-(trifluoromethyl)pyrazolo[1,5-a]pyrimidine]",mortality at 300 ppm,Spodoptera litura,≥ 70%
same,mortality at 300 ppm,Helicoverpa armigera,≥ 70%
same,mortality at 300 ppm,Plutella xylostella,≥ 70%
"CCS(=O)(=O)c1ccc(-n2ccc(C(F)(F)F)n2)nc1-c1ccn2nc(C(F)(F)F)cc2n1 [Compound 34, 5-(3-(ethylsulfonyl)-6-(3-(trifluoromethyl)-1H-pyrazol-1-yl)pyridin-2-yl)-2-(trifluoromethyl)pyrazolo[1,5-a]pyrimidine]",mortality at 300 ppm,Helicoverpa armigera,≥ 70%
same,mortality at 300 ppm,Plutella xylostella,≥ 70%
"CCS(=O)(=O)c1cc(-c2ccn3nc(C(F)(F)F)cc3n2)cnc1-n1ccc(C(F)(F)F)n1 [Compound 37, 5-(5-(ethylsulfonyl)-6-(3-(trifluoromethyl)-1H-pyrazol-1-yl)pyridin-3-yl)-2-(trifluoromethyl)pyrazolo[1,5-a]pyrimidine]",mortality at 300 ppm,Spodoptera litura,≥ 70%
same,mortality at 300 ppm,Plutella xylostella,≥ 70%
"CCS(=O)(=O)c1cc(-n2nc(C(F)(F)F)cc2C)cnc1-c1ccn2nc(C(F)(F)F)cc2n1 [Compound 38, 5-(3-(ethylsulfonyl)-5-(5-methyl-3-(trifluoromethyl)-1H-pyrazol-1-yl)pyridin-2-yl)-2-(trifluoromethyl)pyrazolo[1,5-a]pyrimidine]",mortality at 300 ppm,Spodoptera litura,≥ 70%
same,mortality at 300 ppm,Helicoverpa armigera,≥ 70%
same,mortality at 300 ppm,Plutella xylostella,≥ 70%
"CCS(=O)(=O)c1cc(-c2ccn3nc(C(F)(F)F)cc3n2)cnc1-n1nccn1 [Compound 39, 5-(5-(ethylsulfonyl)-6-(2H-1,2,3-triazol-2-yl)pyridin-3-yl)-2-(trifluoromethyl)pyrazolo[1,5-a]pyrimidine]",mortality at 300 ppm,Spodoptera litura,≥ 70%
same,mortality at 300 ppm,Helicoverpa armigera,≥ 70%
same,mortality at 300 ppm,Plutella xylostella,≥ 70%
"CCS(=O)(=O)c1cc(-c2ccc(OC(F)(F)F)cc2)cnc1-c1ccn2nc(C(F)(F)F)cc2n1 [Compound 66, 5-(3-(ethylsulfonyl)-5-(4-(trifluoromethoxy)phenyl)pyridin-2-yl)-2-(trifluoromethyl)pyrazolo[1,5-a]pyrimidine]",mortality at 300 ppm,Spodoptera litura,≥ 70%
same,mortality at 300 ppm,Helicoverpa armigera,≥ 70%
same,mortality at 300 ppm,Plutella xylostella,≥ 70%
"CCS(=O)(=O)c1cc(-n2cc(F)cn2)cnc1-c1ccn2nc(C(F)(F)F)cc2n1 [Compound 70, 5-(3-(ethylsulfonyl)-5-(4-fluoro-1H-pyrazol-1-yl)pyridin-2-yl)-2-(trifluoromethyl)pyrazolo[1,5-a]pyrimidine]",mortality at 300 ppm,Helicoverpa armigera,≥ 70%
same,mortality at 300 ppm,Plutella xylostella,≥ 70%
"CCS(=O)(=O)c1cc(-c2ccn3nc(C(F)(F)F)cc3n2)cnc1-n1nc2ccc(C(F)(F)F)cn2c1=O [Compound 75, 2-(3-(ethylsulfonyl)-5-(2-(trifluoromethyl)pyrazolo[1,5-a]pyrimidin-5-yl)pyridin-2-yl)-6-(trifluoromethyl)-[1,2,4]triazolo[4,3-a]pyridin-3(2H)-one]",mortality at 300 ppm,Helicoverpa armigera,≥ 70%
same,mortality at 300 ppm,Plutella xylostella,≥ 70%
"CCS(=O)(=O)c1cc(-c2cc(Cl)cc(Cl)c2)cnc1-c1ccn2nc(C(F)(F)F)cc2n1 [Compound 76, 5-(5-(3,5-dichlorophenyl)-3-(ethylsulfonyl)pyridin-2-yl)-2-(trifluoromethyl)pyrazolo[1,5-a]pyrimidine]",mortality at 300 ppm,Spodoptera litura,≥ 70%
same,mortality at 300 ppm,Helicoverpa armigera,≥ 70%
"CCS(=O)(=O)c1cc(-c2ccc(F)cc2)cnc1-c1ccn2nc(C(F)(F)F)cc2n1 [Compound 94, 5-(3-(ethylsulfonyl)-5-(4-fluorophenyl)pyridin-2-yl)-2-(trifluoromethyl)pyrazolo[1,5-a]pyrimidine]",mortality at 300 ppm,Spodoptera litura,≥ 70%
same,mortality at 300 ppm,Helicoverpa armigera,≥ 70%
same,mortality at 300 ppm,Plutella xylostella,≥ 70%
"CCS(=O)(=O)c1cc(-c2ccc(OC(F)(F)C(F)F)cc2)cnc1-c1ccn2nc(C(F)(F)F)cc2n1 [Compound 96, 5-(3-(ethylsulfonyl)-5-(4-(1,1,2,2-tetrafluoroethoxy)phenyl)pyridin-2-yl)-2-(trifluoromethyl)pyrazolo[1,5-a]pyrimidine]",mortality at 300 ppm,Spodoptera litura,≥ 70%
same,mortality at 300 ppm,Helicoverpa armigera,≥ 70%
same,mortality at 300 ppm,Plutella xylostella,≥ 70%
"CCS(=O)(=O)c1cc(-c2ccc(OC(F)(F)F)cc2)cnc1-c1ccn2nc(C(F)(F)F)nc2n1 [Compound 100, 5-(3-(ethylsulfonyl)-5-(4-(trifluoromethoxy)phenyl)pyridin-2-yl)-2-(trifluoromethyl)-[1,2,4]triazolo[1,5-a]pyrimidine]",mortality at 300 ppm,Spodoptera litura,≥ 70%
same,mortality at 300 ppm,Helicoverpa armigera,≥ 70%
same,mortality at 300 ppm,Plutella xylostella,≥ 70%
"CCS(=O)(=O)c1cc(-c2ccc(Cl)cc2)cnc1-c1ccn2nc(C(F)(F)F)nc2n1 [Compound 101, 5-(5-(4-chlorophenyl)-3-(ethylsulfonyl)pyridin-2-yl)-2-(trifluoromethyl)-[1,2,4]triazolo[1,5-a]pyrimidine]",mortality at 300 ppm,Spodoptera litura,≥ 70%
same,mortality at 300 ppm,Plutella xylostella,≥ 70%
"CCS(=O)(=O)c1cc(-c2cc(F)cc(Cl)c2)cnc1-c1ccn2nc(C(F)(F)F)cc2n1 [Compound 111, 5-(5-(3-chloro-5-fluorophenyl)-3-(ethylsulfonyl)pyridin-2-yl)-2-(trifluoromethyl)pyrazolo[1,5-a]pyrimidine]",mortality at 300 ppm,Spodoptera litura,≥ 70%
same,mortality at 300 ppm,Helicoverpa armigera,≥ 70%
same,mortality at 300 ppm,Plutella xylostella,≥ 70%
"CCS(=O)(=O)c1cc(-c2cc(F)cc(F)c2)cnc1-c1ccn2nc(C(F)(F)F)cc2n1 [Compound 125, 5-(5-(3,5-difluorophenyl)-3-(ethylsulfonyl)pyridin-2-yl)-2-(trifluoromethyl)pyrazolo[1,5-a]pyrimidine]",mortality at 300 ppm,Spodoptera litura,≥ 70%
same,mortality at 300 ppm,Plutella xylostella,≥ 70%
"CCS(=O)(=O)c1cc(C=CC2CC2)cnc1-c1ccn2nc(C(F)(F)F)cc2n1 [Compound 205, 5-(5-(2-cyclopropylvinyl)-3-(ethylsulfonyl)pyridin-2-yl)-2-(trifluoromethyl)pyrazolo[1,5-a]pyrimidine]",mortality at 300 ppm,Spodoptera litura,≥ 70%
same,mortality at 300 ppm,Plutella xylostella,≥ 70%
"CCS(=O)(=O)c1cc(OC(F)F)cnc1-c1ccn2nc(C(F)(F)F)cc2n1 [Compound 229, 5-(5-(difluoromethoxy)-3-(ethylsulfonyl)pyridin-2-yl)-2-(trifluoromethyl)pyrazolo[1,5-a]pyrimidine]",mortality at 300 ppm,Helicoverpa armigera,≥ 70%
same,mortality at 300 ppm,Plutella xylostella,≥ 70%
"CCS(=O)(=O)c1ccc(OC(C)C)nc1-c1ccn2nc(C(F)(F)F)cc2n1 [Compound 240, 5-(3-(ethylsulfonyl)-6-isopropoxypyridin-2-yl)-2-(trifluoromethyl)pyrazolo[1,5-a]pyrimidine]",mortality at 300 ppm,Plutella xylostella,≥ 70%
"CCS(=O)(=O)c1ccc(NC(C)C)nc1-c1ccn2nc(C(F)(F)F)cc2n1 [Compound 241, 5-(ethylsulfonyl)-N-isopropyl-6-(2-(trifluoromethyl)pyrazolo[1,5-a]pyrimidin-5-yl)pyridin-2-amine]",mortality at 300 ppm,Plutella xylostella,≥ 70%
"CCS(=O)(=O)c1ccc(NCC2CC2)nc1-c1ccn2nc(C(F)(F)F)cc2n1 [Compound 242, N-(cyclopropylmethyl)-5-(ethylsulfonyl)-6-(2-(trifluoromethyl)pyrazolo[1,5-a]pyrimidin-5-yl)pyridin-2-amine]",mortality at 300 ppm,Plutella xylostella,≥ 70%
"CCS(=O)(=O)c1ccc(OC2CSC2)nc1-c1ccn2nc(C(F)(F)F)cc2n1 [Compound 243, 5-(3-(ethylsulfonyl)-6-(thietan-3-yloxy)pyridin-2-yl)-2-(trifluoromethyl)pyrazolo[1,5-a]pyrimidine]",mortality at 300 ppm,Plutella xylostella,≥ 70%
